Experimental data from the supplement of paper PMC10307832.

Assays:
Test in all cases: relative viability (nuclei count vs DMSO), 5 days (fraction); higher = more cells survive
[1] = compound: C1CC2=C(C1)C=C(C=C2)OC3=NC(=C4C(=N3)N(C=N4)CC5=CC=C(C=C5)C6=CC=CC=C6)N[C@@H](CC7=CC=CC=C7)CO [QS11] + Cc1cc(Nc2cc(N3CCN(C)CC3)nc(Sc3ccc(NC(=O)C4CC4)cc3)n2)n[nH]1 [Tozasertib] (partner 0.1 µM)
How it was run: (§1)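 The day after seeding in 1536-well plates, lung cancer cell lines were treated by pin tool with a single drug, or with a fixed anchor-drug dose together with five library-drug doses (not always all listed) in √10 steps. After 5 days, a combined fix-and-stain solution (final 0.05% Triton X-100, 1% formaldehyde, 1 ug/ml Hoechst) was added. Nuclei counted on 4× images gave relative viability as treated counts over vehicle counts, reported as the median of duplicate plates.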

[2] = compound: C1CC2=C(C1)C=C(C=C2)OC3=NC(=C4C(=N3)N(C=N4)CC5=CC=C(C=C5)C6=CC=CC=C6)N[C@@H](CC7=CC=CC=C7)CO [QS11] + COc1cc2c(Oc3ccc(NC(=O)C4(C(=O)Nc5ccc(F)cc5)CC4)cc3F)ccnc2cc1OCCCN1CCOCC1 [Foretinib] (partner 0.25 µM)
How it was run: as §1

[3] = compound: C1CC2=C(C1)C=C(C=C2)OC3=NC(=C4C(=N3)N(C=N4)CC5=CC=C(C=C5)C6=CC=CC=C6)N[C@@H](CC7=CC=CC=C7)CO [QS11] + CC(=O)Nc1cccc(-n2c(=O)n(C3CC3)c(=O)c3c(Nc4ccc(I)cc4F)n(C)c(=O)c(C)c32)c1 [Trametinib] (partner 0.02 µM)
How it was run: as §1

[4] = compound: C[As](C)SC[C@H](NC(=O)CC[C@H](N)C(=O)O)C(=O)NCC(=O)O [Darinaparsin] + COc1cc2c(Oc3ccc(NC(=O)C4(C(=O)Nc5ccc(F)cc5)CC4)cc3F)ccnc2cc1OCCCN1CCOCC1 [Foretinib] (partner 0.25 µM)
How it was run: as §1

Cell Line | relative viability ([1]; first compound 0.08 µM) | relative viability ([1]; first compound 0.253 µM) | relative viability ([1]; first compound 0.8 µM) | relative viability ([1]; first compound 2.53 µM) | relative viability ([1]; first compound 8 µM) | relative viability ([2]; first compound 0.08 µM) | relative viability ([2]; first compound 0.253 µM) | relative viability ([2]; first compound 0.8 µM) | relative viability ([2]; first compound 2.53 µM) | relative viability ([2]; first compound 8 µM) | relative viability ([3]; first compound 0.08 µM) | relative viability ([3]; first compound 0.253 µM) | relative viability ([3]; first compound 0.8 µM) | relative viability ([3]; first compound 2.53 µM) | relative viability ([3]; first compound 8 µM) | relative viability ([4]; first compound 0.08 µM) | relative viability ([4]; first compound 0.8 µM) | relative viability ([4]; first compound 2.53 µM) | relative viability ([4]; first compound 8 µM)
SK-MES-1 | 1.04 | 0.906 | 0.833 | 0.905 | 0.745 | 0.985 | 0.783 | 0.918 | 0.605 | 0.778 | 0.519 | 0.557 | 0.451 | 0.507 | 0.527 | 1.05 | 0.808 | 0.595 | 1.05
SW 900 | 0.573 | 0.479 | 0.521 | 0.408 | 0.296 | 0.981 | 0.875 | 0.844 | 0.774 | 0.8 | 0.797 | 0.724 | 0.724 | 0.721 | 0.453 | 0.919 | 0.778 | 0.918 | 1.06
LC-2-ad | 0.445 | 0.471 | 0.476 | 0.507 | 0.439 | 0.921 | 0.924 | 0.839 | 1.04 | 0.889 | 0.906 | 0.985 | 0.606 | 0.843 | 0.962 | 0.949 | 1.02 | 0.987 | 0.836
BEN | 0.441 | 0.529 | 0.504 | 0.485 | 0.486 | 0.47 | 0.616 | 0.814 | 0.691 | 0.701 | 1.06 | 1.11 | 1.08 | 1.12 | 1.11 | 0.668 | 0.708 | 0.621 | 0.691
NCI-H1651 | 0.819 | 0.698 | 0.678 | 0.548 | 0.507 | 0.787 | 0.901 | 0.822 | 0.671 | 0.698 | 0.855 | 0.887 | 0.761 | 0.856 | 0.922 | 0.951 | 0.885 | 0.851 | 0.777
EKVX | 0.369 | 0.367 | – | 0.302 | 0.457 | 0.732 | 0.764 | – | 0.848 | 1.23 | 0.288 | 0.618 | 0.3 | 0.306 | 0.321 | 0.835 | 0.445 | 0.743 | 0.786
COR-L 105 | 0.364 | 0.296 | 0.335 | 0.391 | 0.336 | 1.08 | 1.25 | 0.924 | 0.991 | 0.992 | 0.433 | 0.424 | 0.414 | 0.415 | 0.445 | 1.12 | 1.2 | 1.1 | 1.04
NCI-H1650 | 0.244 | 0.368 | 0.436 | 0.358 | 0.402 | 1 | 1.25 | 0.799 | 1.14 | 1.19 | 0.459 | 0.667 | 0.366 | 0.751 | 0.552 | 0.869 | 1.06 | 0.791 | 1.33
HCC-15 | 0.363 | 0.523 | 0.385 | 0.257 | 0.312 | 0.999 | 1.12 | 0.764 | 1.01 | 0.899 | 0.307 | 0.388 | 0.335 | 0.319 | 0.314 | 1.31 | 1 | 0.98 | 1.26
ChaGo-K-1 | 0.232 | 0.256 | 0.238 | 0.216 | 0.23 | 0.816 | 0.967 | 0.971 | 0.99 | 0.895 | – | 0.984 | 0.972 | 0.886 | 0.931 | 0.962 | 0.97 | 0.873 | 1.13
SK-LU-1 | 0.293 | 0.323 | 0.352 | 0.312 | 0.278 | 0.782 | 0.874 | 0.68 | 0.784 | 0.641 | 0.443 | 0.508 | 0.441 | 0.522 | 0.55 | 1.13 | 0.76 | 0.65 | 0.958
LCLC-103H | 0.389 | 0.496 | 0.358 | 0.477 | 0.43 | 0.526 | 0.883 | 0.672 | 0.7 | 0.784 | 0.705 | 0.681 | – | 0.68 | 0.595 | 0.858 | 0.745 | 0.626 | 0.858
RERF-LC-KJ | 0.521 | 0.429 | 0.42 | 0.274 | 0.274 | 0.883 | 0.86 | 0.62 | 0.79 | 0.834 | 0.825 | 0.902 | 0.843 | 0.865 | 0.76 | 1.03 | 0.931 | 0.859 | 0.961
NCI-H2087 | 0.245 | 0.225 | – | 0.243 | 0.265 | 1.07 | 1.15 | – | 1.15 | 1.06 | 0.243 | 0.219 | 0.211 | 0.22 | 0.205 | 1.44 | 1.09 | 1.03 | 1.37
LOU-NH91 | 0.67 | 0.647 | 0.629 | 0.597 | 0.572 | 0.854 | 0.926 | 0.904 | 0.875 | 0.94 | 0.797 | 0.742 | 0.743 | 0.819 | 0.767 | 0.926 | 0.92 | 0.961 | 0.954
201T | 0.956 | 1.03 | 0.694 | 0.892 | 0.584 | 1.18 | 1.08 | 0.868 | 1.04 | 0.632 | 0.729 | 0.739 | 0.566 | 0.704 | 0.61 | 1.2 | 1.15 | 1.19 | 1.03
